# In publication PMC6651170, “New HSV-1 Anti-Viral 1′-Homocarbocyclic Nucleoside Analogs with an Optically Active Substituted Bicyclo[2.2.1]Heptane Fragment as a Glycoside Moiety” (Molecules, 2019):
# Where two headings read alike, the source gives them in different places.
# Legend:
# [1] = in vitro; conditions: African green monkey
# [2] = tested on: herpes simplex virus type 1 (HSV-1); assay: microbe, parasite or virus in culture; assay type: cell-based; conditions: for IC50: Human alphaherpesvirus 1, Vero, 72 h, read-out: IC50 Herpes Simplex Virus Type 1
# [3] = in vitro; conditions: dog
# [4] = in vitro
# [5] = in vitro; remark: listed apart in the source
# [6] = tested on: human adenovirus type 5 (AdV5); assay: microbe, parasite or virus in culture; assay type: cell-based; conditions: Human mastadenovirus C, Vero, 72 h, read-out: IC50 Human Adenovirus Type 5
# [7] = tested on: Yellow Fever Virus; assay: microbe, parasite or virus in culture; assay type: cell-based; conditions: Yellow fever virus, read-out: IC50 Yellow Fever Virus
# [8] = tested on: Chikungunya Virus; assay: microbe, parasite or virus in culture; assay type: cell-based; conditions: Chikungunya virus, read-out: IC50 Chikungunya Virus
# [9] = in vitro; remark: listed apart in the source
# [10] = tested on: Influenza virus (Flu A, strain A/Puerto Rico/8/34 (H1N1)); assay: microbe, parasite or virus in culture; assay type: cell-based; conditions: for IC50: unidentified influenza virus, H1N1, MDCK, 48 h, read-out: IC50 Influenza Virus
# [11] = tested on: Enterovirus 71; assay: microbe, parasite or virus in culture; assay type: cell-based; conditions: Enterovirus A, read-out: IC50 Enterovirus 71
# [12] = CC50 (Herpes Simplex Virus Type 1)
Compound,"CC50 [1, 12] [µM]",IC50 [2] [µM],CC50 [3] [µM],CC50 [4] [µM],CC50 [5] [µM],IC50 [6] [µM],IC50 [7] [µM],IC50 [8] [µM],CC50 ([1]; CC50 (Human Adenovirus Type 5)) [µM],CC50 [9] [µM],IC50 [10] [µM],IC50 [11] [µM],activity against influenza virus in words [10],activity against HSV-1 in words [2]
"Nc1nc2c(ncn2COCCO)c(=O)[nH]1 [Acyclovir, reference compound]",> 1130,28 ± 4,–,–,–,–,–,–,–,–,–,–,–,–
"O=c1[nH]c(=O)n(C[C@H]2[C@@H]3CC(O)[C@H]2C[C@@H]3Cl)cc1F (stereo partly drawn) [Compound 4a, 1-(((1S,2S,4S,7R)-2-Chloro-5-hydroxybicyclo[2.2.1]heptan-7-yl)methyl)-5-fluoropyrimidine-2,4(1H,3H)-dione]",> 1040,> 1040,> 1040,> 100,> 100,> 1040,> 100,> 100,> 1040,> 100,173 ± 21,> 100,–,–
"O=c1ccn(C[C@@H]2[C@@H]3C[C@H](Cl)[C@H]2C[C@H]3O)c(=O)[nH]1 [Compound 4b, 1-(((1S,2S,4S,5R,7R)-2-Chloro-5-hydroxybicyclo[2.2.1]heptan-7-yl)methyl)pyrimidine-2,4(1H,3H)-dione]",1110,705 ± 81,> 1110,> 100,> 100,> 1110,> 100,> 100,> 1110,> 100,369 ± 26,> 100,–,–
"Cc1cn(C[C@H]2[C@@H]3CC(O)[C@H]2C[C@@H]3Cl)c(=O)[nH]c1=O (stereo partly drawn) [Compound 4c, 1-(((1S,2S,4S,7R)-2-Chloro-5-hydroxybicyclo[2.2.1]heptan-7-yl)methyl)-5-methylpyrimidine-2,4(1H,3H)-dione]",> 1050,> 1050,> 1050,> 100,> 100,> 1050,> 100,> 100,> 1050,> 100,> 1050,> 100,–,–
"Nc1ccn(C[C@H]2[C@@H]3CC(O)[C@H]2C[C@@H]3Cl)c(=O)n1 (stereo partly drawn) [Compound 4d, 4-Amino-1-(((1S,2S,4S,7R)-2-chloro-5-hydroxybicyclo[2.2.1]heptan-7-yl)methyl)pyrimidin-2(1H)-one]",> 1110,727 ± 77,> 1110,> 100,> 100,> 1110,> 100,> 100,> 1110,> 100,102 ± 12,> 100,active against influenza virus,ineffective against HSV-1
"OC1C[C@H]2[C@H](Cn3cnc4c(Cl)ncnc43)[C@@H]1C[C@@H]2Cl (stereo partly drawn) [Compound 5, (1S,4S,5S,7R)-5-Chloro-7-((6-chloro-9H-purin-9-yl)methyl)bicyclo[2.2.1]heptan-2-ol]",> 830,69 ± 9,> 958,> 100,> 100,> 958,> 100,> 100,> 958,> 100,254 ± 14,> 100,–,active against herpes
"Nc1ncnc2c1ncn2C[C@H]1[C@@H]2CC(O)[C@H]1C[C@@H]2Cl (stereo partly drawn) [Compound 6a, (1S,4S,5S,7R)-7-((6-Amino-9H-purin-9-yl)methyl)-5-chlorobicyclo[2.2.1]heptan-2-ol]",975 ± 64,102 ± 11,> 1020,> 100,> 100,> 340,> 100,> 100,977 ± 103,> 100,328 ± 29,71,–,–
"OC1C[C@H]2[C@H](Cn3cnc4c(NC5CC5)ncnc43)[C@@H]1C[C@@H]2Cl (stereo partly drawn) [Compound 6b, (1S,4S,5S,7R)-5-Chloro-7-((6-(cyclopropylamino)-9H-purin-9-yl)methyl)bicyclo[2.2.1]heptan-2-ol]",> 773,599 ± 64,752 ± 44,> 100,> 100,> 899,> 100,> 100,> 899,> 100,419 ± 51,> 100,–,–
"OC1C[C@H]2[C@H](Cn3cnc4c(NC5CCCC5)ncnc43)[C@@H]1C[C@@H]2Cl (stereo partly drawn) [Compound 6c, (1S,4S,5S,7R)-5-Chloro-7-((6-(cyclopentylamino)-9H-purin-9-yl)methyl)bicyclo[2.2.1]heptan-2-ol]",605 ± 42,47 ± 6,227 ± 19,> 100,> 100,> 276,> 100,> 100,824 ± 91,> 100,> 83,28 ± 16,–,active against herpes
"OC1C[C@H]2[C@H](Cn3cnc4c(NC5CCCCC5)ncnc43)[C@@H]1C[C@@H]2Cl (stereo partly drawn) [Compound 6d, (1S,4S,5S,7R)-5-Chloro-7-((6-(cyclohexylamino)-9H-purin-9-yl)methyl)bicyclo[2.2.1]heptan-2-ol]",521 ± 48,21 ± 4,42 ± 3,> 100,> 100,123 ± 14,> 100,> 100,697 ± 75,> 100,> 27,28 ± 13,–,active against herpes
"OC[C@@H](Cc1ccccc1)Nc1ncnc2c1ncn2C[C@H]1[C@@H]2CC(O)[C@H]1C[C@@H]2Cl (stereo partly drawn) [Compound 6e, (1S,4S,5S,7R)-5-Chloro-7-((6-(((R)-1-hydroxy-3-phenylpropan-2-yl)amino)-9H-purin-9-yl)methyl)bicyclo[2.2.1]heptan-2-ol]",> 608,380 ± 46,188 ± 22,> 100,> 100,> 701,> 100,> 100,> 701,> 100,> 26,> 100,–,–
"CN1CCN(c2ncnc3c2ncn3C[C@H]2[C@@H]3CC(O)[C@H]2C[C@@H]3Cl)CC1 (stereo partly drawn) [Compound 6f, (1S,4S,5S,7R)-5-Chloro-7-((6-(4-methylpiperazin-1-yl)-9H-purin-9-yl)methyl)bicyclo[2.2.1]heptan-2-ol]",> 719,28 ± 4,> 796,> 100,> 100,105 ± 11,> 100,> 100,> 796,> 100,241 ± 30,> 100,–,active against herpes
"CN1CCN(Nc2ncnc3c2ncn3C[C@H]2[C@@H]3CC(O)[C@H]2C[C@@H]3Cl)CC1 (stereo partly drawn) [Compound 6g, (1S,4S,5S,7R)-5-Chloro-7-((6-((4-methylpiperazin-1-yl)amino)-9H-purin-9-yl)methyl)bicyclo[2.2.1]heptan-2-ol]",> 766,540 ± 32,> 766,> 100,> 100,> 766,> 100,> 100,> 766,> 100,> 766,> 100,–,complete loss of virus inhibition
"OC1C[C@H]2[C@H](Cn3cnc4c(N5CCOCC5)ncnc43)[C@@H]1C[C@@H]2Cl (stereo partly drawn) [Compound 6h, (1S,4S,5S,7R)-5-Chloro-7-((6-morpholino-9H-purin-9-yl)methyl)bicyclo[2.2.1]heptan-2-ol]",> 600,341 ± 40,> 600,> 100,> 100,> 600,> 100,> 100,> 600,> 100,196 ± 15,> 100,–,–
"Oc1ccc(CCNc2ncnc3c2ncn3C[C@H]2[C@@H]3CC(O)[C@H]2C[C@@H]3Cl)cc1 (stereo partly drawn) [Compound 6i, (1S,4S,5S,7R)-5-Chloro-7-((6-((4-hydroxyphenethyl)amino)-9H-purin-9-yl)methyl)bicyclo[2.2.1]heptan-2-ol]",447 ± 31,155 ± 13,124 ± 9,> 100,> 100,> 72,> 100,> 100,217 ± 17,> 100,> 72,79,–,–
"OC1C[C@H]2[C@H](Cn3cnc4c(NCCc5ccccc5)ncnc43)[C@@H]1C[C@@H]2Cl (stereo partly drawn) [Compound 6k, (1S,4S,5S,7R)-5-Chloro-7-((6-(phenethylamino)-9H-purin-9-yl)methyl)bicyclo[2.2.1]heptan-2-ol]",185 ± 16,48 ± 6,254 ± 21,> 100,> 100,> 75,> 100,> 100,245 ± 18,> 100,74 ± 8,25 ± 5.6,–,–
"CCOC(=O)C1=C[C@@H](OC(CC)CC)[C@H](NC(C)=O)[C@@H](N)C1 [Oseltamivir, reference compound]",–,–,> 100,–,–,–,–,–,–,–,0.3 ± 0.1,–,–,–
